{"source": "patent US20100204187A1", "about": "“Purine Derivatives” (priority 2007, published 2010)", "test_system": "C57BL/6J mice", "assay": "Delayed-type hypersensitivity response (DTH), footpad swelling after sheep red blood cell challenge (Biological Assay 2)", "type": "in vivo", "details": "administered orally (p.o. once daily during sensitization and challenge phases), male C57BL/6J mice", "procedure": "Delayed-Type Hypersensitivity Response (DTH)\nThis assay was performed essentially as disclosed in Kudlacz E. et al, see supra. Male C57BL/6J mice received i.v. injections of 1×10^5 sheep red blood cells in a volume of 0.2 mL sterile phosphate buffered saline (PBS). Four days later, sensitized mice received an injection of 1×10^8 sheep red blood cells in a volume of 30 μL sterile PBS into the left footpad. Twenty-four hours later, animals were sacrificed and their footpads removed and weighted. The DTH swelling response was calculated by subtracting the right footpad weight (baseline) from that of the left footpad (experimental). Test compounds or vehicle (0.2% carboxymethylcellulose and 1% Tween 80 in water) were administered p.o. once daily during both sensitization and challenge phases of the DTH response. Compounds of examples 1 cc, 1cr, 1ct, 5u, 10h and 10p were active in this assay when administered orally.", "data": [{"smiles": "COc1ccc(Nc2nc(-c3ccc(NC(C)=O)cc3)c3nc[nH]c3n2)cc1S(N)(=O)=O", "note": "[Example 1 cc, 6-(4-acetylamino)phenyl-2-(4-methoxy-3-aminosulfonylphenyl)amino-9H-purine]", "values": [{"measurement": "activity in DTH swelling response assay", "value": "active"}]}, {"smiles": "COc1ccc(Nc2nc(-c3cccc(S(C)(=O)=O)c3)c3nc[nH]c3n2)cc1OC", "note": "[Example 1cr, 2-(3,4-dimethoxyphenyl)amino-6-(3-methanesulfonyl)phenyl-9H-purine]", "values": [{"measurement": "activity in DTH swelling response assay", "value": "active"}]}, {"smiles": "CS(=O)(=O)c1cccc(-c2nc(Nc3ccc(CCO)cc3)nc3[nH]cnc23)c1", "note": "[Example 1ct]", "values": [{"measurement": "activity in DTH swelling response assay", "value": "active"}]}, {"smiles": "CCCN(C)c1ccc(-c2nc(Nc3ccc(N4CCOCC4)cc3)nc3[nH]cnc23)cn1", "note": "[Example 5u, 6-[(6-N-methylpropylamino)pyridin-3-yl]-2-[4-(4-morpholino)phenyl]amino-9H-purine]", "values": [{"measurement": "activity in DTH swelling response assay", "value": "active"}]}]}
